Reference: patent US7265096B2 (XenoPort, Inc., priority 2002, dated 2007)

Legend:
[1] = Pharmacokinetics and intestinal exposure to gemcitabine after oral dosing in mice; format: in vivo; settings: male, mouse, blood, po, 20 mg-eq. gemcitabine/kg; read-out: Fpo (oral bioavailability)
Description: Blood samples (0.5 mL) were obtained by cardiac puncture from 4 animals at each time point (1, 5, 10, 15, 30, 45 minutes and 1, 2, 4, 6 and 24 hr post-dosing). Samples were immediately transferred to tubes containing 10 μL of tetrahydrouridine (50 μg/mL in 50% methanol/water) to prevent further deamination and aliquots (100 μL) were quenched with a solution of 1% w/w formic acid in acetonitrile (300 μL). Quenched blood samples were stored at −80° C. until analyzed. Following collection of blood samples, the small intestine of each animal was removed, rinsed with saline, scraped to remove the mucosal layer, and the mucosal tissue was transferred to a pre-weighed vial containing 10 μL of tetrahydrouridine (50 μg/mL in 50% methanol/water). Sample vials were snap frozen in dry ice/acetone and stored at −80° C. until analyzed. Mucosal tissue samples were diluted 1:10 in water and 100 μL of the resulting sample was added to 400 μL of methanol.

[2] = intravenous infusion for up to 12 hours; cited from earlier work
CNT2 = biological target: T1, CNT2 (Homo sapiens, UniProt O43868); settings: literature (Mackey et al.; Fang et al.); cited from earlier work
T1 sequence (O43868 1-658): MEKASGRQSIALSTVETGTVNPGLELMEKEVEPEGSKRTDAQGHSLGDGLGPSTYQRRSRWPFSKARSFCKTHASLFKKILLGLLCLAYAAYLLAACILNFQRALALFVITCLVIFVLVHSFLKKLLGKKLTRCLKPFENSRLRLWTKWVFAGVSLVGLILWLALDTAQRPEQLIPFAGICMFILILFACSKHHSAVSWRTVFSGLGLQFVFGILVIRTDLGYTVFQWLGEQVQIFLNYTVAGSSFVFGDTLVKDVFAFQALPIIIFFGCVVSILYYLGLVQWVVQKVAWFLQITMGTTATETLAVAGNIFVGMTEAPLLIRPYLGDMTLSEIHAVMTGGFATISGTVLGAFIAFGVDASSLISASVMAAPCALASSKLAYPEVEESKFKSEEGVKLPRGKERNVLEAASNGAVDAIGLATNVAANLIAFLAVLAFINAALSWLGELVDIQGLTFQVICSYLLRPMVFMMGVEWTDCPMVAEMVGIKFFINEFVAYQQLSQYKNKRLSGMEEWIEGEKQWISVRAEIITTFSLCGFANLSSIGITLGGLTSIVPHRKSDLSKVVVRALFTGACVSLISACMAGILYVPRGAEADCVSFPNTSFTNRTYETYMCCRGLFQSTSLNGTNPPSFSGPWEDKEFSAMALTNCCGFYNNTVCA

[3] = system: human ENT1, ENT2, CNT1 and CNT3; settings: literature (Mackey et al.; Fang et al.); cited from earlier work

For Nc1ccn([C@@H]2O[C@H](CO)[C@@H](O)C2(F)F)c(=O)n1 [gemcitabine, 2′,2′-difluoro-2′-deoxycytidine], the bioavailability [1] is given as 20%, the “Dose reported to be tolerated in patients” value [2] is given as 10 mg/m^2/min and the “Transport by CNT2” value (CNT2) is given as “not the purine-selective concentrative transporter CNT2”. The “Transport by human ENT1, ENT2, CNT1 and CNT3” value [3] was “transported by human ENT1, ENT2, CNT1 and CNT3”.
